Results taken from publication PMC11968560 (Proteins, 2024).

Molecular target: T1, PfGrp94 (Plasmodium falciparum glucose-regulated protein 94 kDa, endoplasmin) (Plasmodium falciparum, UniProt Q8I0V4)
T1 sequence (Q8I0V4 22-821): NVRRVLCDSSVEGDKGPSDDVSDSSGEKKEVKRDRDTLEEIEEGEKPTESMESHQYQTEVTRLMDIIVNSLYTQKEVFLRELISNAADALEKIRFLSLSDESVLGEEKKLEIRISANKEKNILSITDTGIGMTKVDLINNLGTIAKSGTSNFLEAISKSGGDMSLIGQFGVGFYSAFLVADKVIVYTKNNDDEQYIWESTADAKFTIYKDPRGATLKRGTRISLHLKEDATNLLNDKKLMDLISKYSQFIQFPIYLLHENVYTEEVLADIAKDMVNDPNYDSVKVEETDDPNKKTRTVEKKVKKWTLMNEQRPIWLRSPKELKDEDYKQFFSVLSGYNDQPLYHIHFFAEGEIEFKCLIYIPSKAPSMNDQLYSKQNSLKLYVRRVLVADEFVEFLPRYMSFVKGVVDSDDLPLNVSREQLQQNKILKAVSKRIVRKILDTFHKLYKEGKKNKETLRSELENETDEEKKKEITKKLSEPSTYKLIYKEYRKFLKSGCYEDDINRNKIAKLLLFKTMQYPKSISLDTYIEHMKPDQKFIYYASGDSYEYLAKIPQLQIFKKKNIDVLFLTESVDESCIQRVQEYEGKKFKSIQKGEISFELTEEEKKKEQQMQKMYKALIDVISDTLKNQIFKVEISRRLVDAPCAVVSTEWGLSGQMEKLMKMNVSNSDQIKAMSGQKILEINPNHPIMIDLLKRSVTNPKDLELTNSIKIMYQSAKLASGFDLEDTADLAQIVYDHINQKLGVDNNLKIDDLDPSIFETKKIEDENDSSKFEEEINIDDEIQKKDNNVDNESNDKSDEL
Assay: malachite green ATPase inhibition
Assay type: biochemical

For `CCNC(=O)[C@H]1O[C@@H](n2cnc3c(N)ncnc32)[C@H](O)[C@@H]1O` [NECA], the EC50 was 3.53 ± 1.5 µM.
